PubChem BioAssay (NCI)
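In this assay, cells in 96-well plates receive the compound at five concentrations for 48 hours. Endpoints are linearly interpolated between the surrounding concentrations. TGI marks complete inhibition of growth.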

Assays:
Assay in all cases: DTP human tumour cell line panel, 48 h
[1] = test system: U251 CNS
[2] = test system: NCI-H522 lung
[3] = test system: SN12C renal
[4] = test system: OVCAR-8 ovarian
[5] = test system: T-47D breast
[6] = test system: UACC-257 melanoma
[7] = test system: 786-0 renal
[8] = test system: SF-268 CNS
[9] = test system: SK-OV-3 ovarian
[10] = test system: CCRF-CEM leukemia
[11] = test system: OVCAR-5 ovarian
[12] = test system: SK-MEL-2 melanoma
[13] = test system: SW-620 colon
[14] = test system: HT29 colon
[15] = test system: BT-549 breast
[16] = test system: ACHN renal
[17] = test system: KM12 colon
[18] = test system: SF-295 CNS
[19] = test system: MCF7 breast
[20] = test system: RXF 393 renal
[21] = test system: A549 NSCLC
[22] = test system: HS 578T breast
[23] = test system: COLO 205 colon
[24] = test system: UO-31 renal
[25] = test system: HCT-116 colon
[26] = test system: MDA-MB-435
[27] = test system: OVCAR-4 ovarian
[28] = test system: IGROV1 ovarian
[29] = test system: PC-3 prostate
[30] = test system: SK-MEL-5 melanoma
[31] = test system: HL-60(TB) leukemia
[32] = test system: HOP-92 NSCLC
[33] = test system: HCC-2998 colon
[34] = test system: K-562 leukemia
[35] = test system: HOP-62 NSCLC
[36] = test system: MALME-3M melanoma
[37] = test system: TK-10 renal
[38] = test system: CAKI-1 renal
[39] = test system: M14 melanoma
[40] = test system: SR leukemia
[41] = test system: HCT-15 colon
[42] = test system: NCI-H460 lung
[43] = test system: A498 renal
[44] = test system: UACC-62 melanoma
[45] = test system: MOLT-4 leukemia
[46] = test system: RPMI-8226 leukemia
[47] = test system: SF-539 CNS
[48] = test system: SNB-75 CNS
[49] = test system: NCI-H23 lung
[50] = test system: NCI/ADR-RES ovarian
[51] = test system: SK-MEL-28 melanoma
[52] = test system: DU-145 prostate
[53] = test system: OVCAR-3 ovarian
[54] = test system: MDA-MB-231 breast
[55] = test system: EKVX NSCLC
[56] = test system: SNB-19 CNS
[57] = test system: LOX IMVI melanoma
[58] = test system: NCI-H226 lung
[59] = test system: MDA-N

**Q.** Which TGI [1] does the source give for `CCOC(=O)c1c2c(n(-c3ccc(C)cc3)c1C)-c1ccccc1C(=O)C2(C(=O)OCC)C(=O)OCC` here?
**A.** > 100 µM

**Q.** And the TGI [2]?
**A.** 79.9 µM

**Q.** What about the TGI [3] of the same compound?
**A.** > 100 µM

**Q.** What about the TGI [4] of the same compound?
**A.** 98.4 µM

**Q.** What about the TGI [5] of the same compound?
**A.** 64.5 µM

**Q.** What about the TGI [6] of the same compound?
**A.** > 100 µM

**Q.** What about the TGI [7] of the same compound?
**A.** > 100 µM

**Q.** And the TGI [8]?
**A.** > 91.9 µM

**Q.** And the TGI [9]?
**A.** > 100 µM

**Q.** What about the TGI [10] of the same compound?
**A.** > 100 µM

**Q.** And the TGI [11]?
**A.** > 100 µM

**Q.** What about the TGI [12] of the same compound?
**A.** > 88.5 µM

**Q.** And the TGI [13]?
**A.** > 100 µM

**Q.** And the TGI [14]?
**A.** > 84.3 µM

**Q.** And the TGI [15]?
**A.** 55.2 µM

**Q.** What about the TGI [16] of the same compound?
**A.** > 100 µM

**Q.** And the TGI [17]?
**A.** > 100 µM

**Q.** What about the TGI [18] of the same compound?
**A.** > 100 µM

**Q.** And the TGI [19]?
**A.** 76.6 µM

**Q.** What about the TGI [20] of the same compound?
**A.** 75.2 µM

**Q.** And the TGI [21]?
**A.** > 100 µM

**Q.** What about the TGI [22] of the same compound?
**A.** 86.5 µM

**Q.** And the TGI [23]?
**A.** > 100 µM

**Q.** What about the TGI [24] of the same compound?
**A.** > 100 µM

**Q.** And the TGI [25]?
**A.** > 72.9 µM

**Q.** And the TGI [26]?
**A.** 93.5 µM

**Q.** What about the TGI [27] of the same compound?
**A.** > 100 µM

**Q.** What about the TGI [28] of the same compound?
**A.** > 87.7 µM

**Q.** And the TGI [29]?
**A.** > 100 µM

**Q.** What about the TGI [30] of the same compound?
**A.** 50.4 µM

**Q.** And the TGI [31]?
**A.** 18.6 µM

**Q.** And the TGI [32]?
**A.** 88.6 µM

**Q.** What about the TGI [33] of the same compound?
**A.** 69.9 µM

**Q.** What about the TGI [34] of the same compound?
**A.** > 59.4 µM

**Q.** What about the TGI [35] of the same compound?
**A.** > 100 µM

**Q.** And the TGI [36]?
**A.** > 75.5 µM

**Q.** What about the TGI [37] of the same compound?
**A.** > 100 µM

**Q.** And the TGI [38]?
**A.** > 100 µM

**Q.** What about the TGI [39] of the same compound?
**A.** > 100 µM

**Q.** And the TGI [40]?
**A.** > 4.64 µM

**Q.** And the TGI [41]?
**A.** > 100 µM

**Q.** And the TGI [42]?
**A.** 98.5 µM

**Q.** What about the TGI [43] of the same compound?
**A.** 97.3 µM

**Q.** And the TGI [44]?
**A.** > 91.8 µM

**Q.** And the TGI [45]?
**A.** > 4.64 µM

**Q.** And the TGI [46]?
**A.** 57.5 µM

**Q.** What about the TGI [47] of the same compound?
**A.** > 71.9 µM

**Q.** What about the TGI [48] of the same compound?
**A.** > 91.4 µM

**Q.** And the TGI [49]?
**A.** > 100 µM

**Q.** What about the TGI [50] of the same compound?
**A.** > 85.3 µM

**Q.** And the TGI [51]?
**A.** > 85.5 µM

**Q.** What about the TGI [52] of the same compound?
**A.** > 100 µM

**Q.** What about the TGI [53] of the same compound?
**A.** 69.2 µM

**Q.** What about the TGI [54] of the same compound?
**A.** > 100 µM

**Q.** What about the TGI [55] of the same compound?
**A.** > 88.2 µM

**Q.** And the TGI [56]?
**A.** > 100 µM

**Q.** What about the TGI [57] of the same compound?
**A.** > 84.5 µM

**Q.** What about the TGI [58] of the same compound?
**A.** > 94.7 µM

**Q.** Which TGI [3] does the source give for `c1ccc(COC[C@H]2O[C@@H](c3ccccc3)C[C@@H](OCc3ccccc3)C2OCc2ccccc2)cc1` (stereo partly drawn) here?
**A.** > 10 µM

**Q.** And the TGI [4]?
**A.** > 10 µM

**Q.** What about the TGI [5] of the same compound?
**A.** > 10 µM

**Q.** And the TGI [7]?
**A.** > 10 µM

**Q.** And the TGI [8]?
**A.** > 10 µM

**Q.** And the TGI [9]?
**A.** > 10 µM

**Q.** What about the TGI [10] of the same compound?
**A.** > 10 µM

**Q.** And the TGI [13]?
**A.** > 10 µM

**Q.** What about the TGI [17] of the same compound?
**A.** > 10 µM

**Q.** And the TGI [18]?
**A.** > 10 µM

**Q.** What about the TGI [19] of the same compound?
**A.** > 10 µM

**Q.** What about the TGI [20] of the same compound?
**A.** > 10 µM

**Q.** What about the TGI [21] of the same compound?
**A.** > 10 µM

**Q.** What about the TGI [23] of the same compound?
**A.** > 10 µM

**Q.** And the TGI [28]?
**A.** > 10 µM

**Q.** And the TGI [29]?
**A.** > 10 µM

**Q.** What about the TGI [30] of the same compound?
**A.** > 10 µM

**Q.** What about the TGI [33] of the same compound?
**A.** > 10 µM

**Q.** What about the TGI [35] of the same compound?
**A.** > 10 µM

**Q.** And the TGI [36]?
**A.** > 10 µM

**Q.** And the TGI [37]?
**A.** > 10 µM

**Q.** And the TGI [38]?
**A.** > 10 µM

**Q.** And the TGI [39]?
**A.** > 10 µM

**Q.** And the TGI [40]?
**A.** > 10 µM

**Q.** What about the TGI [41] of the same compound?
**A.** > 10 µM

**Q.** What about the TGI [44] of the same compound?
**A.** > 10 µM

**Q.** What about the TGI [45] of the same compound?
**A.** > 10 µM

**Q.** What about the TGI [46] of the same compound?
**A.** > 10 µM

**Q.** And the TGI [48]?
**A.** > 10 µM

**Q.** And the TGI [59]?
**A.** > 10 µM

**Q.** What about the TGI [49] of the same compound?
**A.** > 10 µM

**Q.** What about the TGI [51] of the same compound?
**A.** > 10 µM

**Q.** What about the TGI [52] of the same compound?
**A.** > 10 µM

**Q.** And the TGI [54]?
**A.** > 10 µM

**Q.** And the TGI [55]?
**A.** > 10 µM
